Usually IC50 stands for the concentration needed to halve the response being measured. Usually Ki stands for a measure of affinity in units of concentration, obtained from inhibition or displacement. High values mean weaker binding, low ones tighter binding. What is called inhibition is how much of the control response was suppressed.

SMILES strings stand for the structures. The source made the active and inactive calls. No cut-off for these calls is given here.

The first data set concerns the target T1, Low molecular weight protein-tyrosine phosphatase A (Mycobacterium tuberculosis, UniProt P9WIA1).
T1 sequence (P9WIA1 whole entry): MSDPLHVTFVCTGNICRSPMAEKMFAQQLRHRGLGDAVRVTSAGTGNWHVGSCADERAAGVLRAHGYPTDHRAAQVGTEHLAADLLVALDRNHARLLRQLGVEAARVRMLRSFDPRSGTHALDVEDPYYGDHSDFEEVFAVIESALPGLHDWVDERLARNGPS
The data set can be described thus: Inhibition of Mycobacterium tuberculosis PTPA after 20 mins by ELISA.
Conditions: not given
On the technique in general: ELISA stands for enzyme-linked immunosorbent assay.
Consider `COc1cc(C(=O)/C=C/c2ccc3ccccc3c2)ccc1O`, for which the IC50 came out at 53.7 µM. In other words, the double-digit micromolar range.

The next data set addresses T2, Phosphotyrosine-protein phosphatase PTPB (Mycobacterium tuberculosis, UniProt P96830).
T2 sequence (P96830 whole entry): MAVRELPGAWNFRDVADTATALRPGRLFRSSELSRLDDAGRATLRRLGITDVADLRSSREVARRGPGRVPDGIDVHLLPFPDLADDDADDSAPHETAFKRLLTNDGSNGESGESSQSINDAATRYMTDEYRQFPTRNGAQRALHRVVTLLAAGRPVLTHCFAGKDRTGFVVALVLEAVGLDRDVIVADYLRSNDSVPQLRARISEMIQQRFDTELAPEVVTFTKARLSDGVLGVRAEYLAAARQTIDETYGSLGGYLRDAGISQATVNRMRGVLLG
The data set can be described thus: Inhibition of N-terminal histidine-tagged Mycobacterium tuberculosis PTPB expressed in Escherichia coli BL21 (DE3) after 45 mins by fluorescence assay.
Conditions: not given
In the case of `NC1=S2C=CC(S(N)(=O)=O)=C2C(=O)C1=O` (configuration not stated), the IC50 is 0.44 µM.

The target in the next data set is T1, Low molecular weight protein-tyrosine phosphatase A. The data set is described as follows: Inhibition of Mycobacterium tuberculosis PTPA-mediated pNPP hydrolysis.
Conditions: not given
As for `COc1cc(C(=O)/C=C/c2ccc3ccccc3c2)ccc1O`, the affinity, expressed as Ki, was 17.9 µM.
The compound `COc1ccc(OC)c(C(=O)/C=C/c2cccc3ccccc23)c1` had an inhibition constant (Ki) of 21.3 µM.
The same measure, in the same setting: in the case of `O=C(/C=C/c1cccc2ccccc12)c1ccccc1O` it was 9.1 µM.
The same measure, in the same setting: in the case of `COc1ccc(OC)c(C(=O)/C=C/c2ccc3ccccc3c2)c1` it was 5.4 µM; in that of `COc1ccc(C(=O)/C=C/c2ccc3ccccc3c2)cc1OC`, 4.9 µM.

Another data set concerns the target T3, Low molecular weight protein-tyrosine phosphatase A (Mycobacterium tuberculosis) (UniProt P9WIA1).
T3 sequence (whole entry): T1 sequence (P9WIA1 whole entry)
The data set can be described thus: Competitive inhibition of Mycobacterium tuberculosis PTPA by Lineweaver-Burke plot analysis.
Conditions: not given
As for `COc1cc(C(=O)/C=C/c2ccc3ccccc3c2)ccc1O`, the inhibition result was “Active”.
On the same count and under the same terms, with `COc1ccc(OC)c(C(=O)/C=C/c2cccc3ccccc23)c1` the entry was “Active”; with `O=C(/C=C/c1cccc2ccccc12)c1ccccc1O`, “Active”; with `COc1ccc(OC)c(C(=O)/C=C/c2ccc3ccccc3c2)c1`, “Active”.
Regarding `COc1ccc(C(=O)/C=C/c2ccc3ccccc3c2)cc1OC`, the inhibition entry was “Active”.

A further data set concerns the target T4, Phosphotyrosine-protein phosphatase PTPB (Mycobacterium tuberculosis) (UniProt P96830).
T4 sequence (whole entry): T2 sequence (P96830 whole entry)
The data set can be described thus: Inhibition of Mycobacterium tuberculosis PTPB at 100 uM after 20 mins by ELISA.
Conditions: not given
For `COc1cc(C(=O)/C=C/c2ccc3ccccc3c2)ccc1O`, the inhibition result is “inactive”.
Same read-out and setting: in the case of `COc1ccc(OC)c(C(=O)/C=C/c2cccc3ccccc23)c1` it was “inactive”; in that of `O=C(/C=C/c1cccc2ccccc12)c1ccccc1O`, “inactive”; in that of `COc1ccc(OC)c(C(=O)/C=C/c2ccc3ccccc3c2)c1`, “inactive”.
Still for that read-out and setting: in the case of `COc1ccc(C(=O)/C=C/c2ccc3ccccc3c2)cc1OC` it was “inactive”.

A further data set deals with T5, Tyrosine-protein phosphatase non-receptor type 1 (Homo sapiens, UniProt P18031).
T5 sequence (P18031 whole entry): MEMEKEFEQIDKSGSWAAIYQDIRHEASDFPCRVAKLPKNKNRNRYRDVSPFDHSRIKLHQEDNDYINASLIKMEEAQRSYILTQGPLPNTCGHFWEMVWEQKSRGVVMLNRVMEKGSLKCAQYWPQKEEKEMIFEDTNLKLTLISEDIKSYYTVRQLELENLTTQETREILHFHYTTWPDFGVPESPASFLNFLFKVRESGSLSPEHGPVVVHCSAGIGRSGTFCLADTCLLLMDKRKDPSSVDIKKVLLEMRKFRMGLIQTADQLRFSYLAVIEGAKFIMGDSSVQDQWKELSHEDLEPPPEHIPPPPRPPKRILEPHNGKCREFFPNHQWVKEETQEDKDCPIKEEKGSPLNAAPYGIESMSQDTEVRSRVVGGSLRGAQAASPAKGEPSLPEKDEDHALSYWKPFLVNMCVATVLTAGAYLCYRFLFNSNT
The data set is described as follows: Inhibition of human PTP1B.
Conditions: not given
The compound `COc1cc(C(=O)/C=C/c2ccc3ccccc3c2)ccc1O` yielded an IC50 of 123 µM.
Same read-out and setting: in the case of `COc1ccc(OC)c(C(=O)/C=C/c2cccc3ccccc23)c1` it was 214 µM; in that of `O=C(/C=C/c1cccc2ccccc12)c1ccccc1O`, 158 µM.
On the same count and under the same terms, with `COc1ccc(OC)c(C(=O)/C=C/c2ccc3ccccc3c2)c1` the figure was 145 µM.
The same measure, in the same setting: in the case of `COc1ccc(C(=O)/C=C/c2ccc3ccccc3c2)cc1OC` it was 1260 µM.

For a further data set, the system named is THP-1. The data set can be described thus: Cytotoxicity against human THP1 cells at 40 uM after 24 hrs by flow cytometry. It is filed as cell-based. The following applies: thp-1, 24 h. On the technique in general: Flow cytometry measures light scatter and fluorescence of single cells or particles in a stream.
In the case of `COc1cc(C(=O)/C=C/c2ccc3ccccc3c2)ccc1O`, the Activity is given as 10.5%.
The same measure, in the same setting: with `COc1ccc(OC)c(C(=O)/C=C/c2cccc3ccccc23)c1` the figure was 77.8%; with `O=C(/C=C/c1cccc2ccccc12)c1ccccc1O`, 2%; with `COc1ccc(OC)c(C(=O)/C=C/c2ccc3ccccc3c2)c1`, 83.1%.
For `COc1ccc(C(=O)/C=C/c2ccc3ccccc3c2)cc1OC`, the Activity came to 1.6%.

The test system of another data set is THP-1. The data set is described as follows: Cytotoxicity against human THP1 cells at 4 uM after 24 hrs by flow cytometry. It counts as cell-based. The following applies: thp-1, 24 h.
`COc1cc(C(=O)/C=C/c2ccc3ccccc3c2)ccc1O` registered an Activity of 0.9%.
On the same count and under the same terms, in the case of `COc1ccc(OC)c(C(=O)/C=C/c2cccc3ccccc23)c1` it was 0.9%; in that of `COc1ccc(OC)c(C(=O)/C=C/c2ccc3ccccc3c2)c1`, 1.3%.

A further data set relates to Mycobacterium tuberculosis. The data set can be described thus: Antibacterial activity against Mycobacterium tuberculosis H37Rv infected in human THP1 cells assessed as reduction of bacterial burden at 10 uM after 24 hrs. It counts as functional, organism-based. The following applies: THP-1.
Consider `COc1ccc(OC)c(C(=O)/C=C/c2cccc3ccccc23)c1`, for which the inhibition entry was “inactive”.

For a further data set, the system named is Mycobacterium tuberculosis. The data set is described as follows: Antibacterial activity against Mycobacterium tuberculosis H37Rv infected in human THP1 cells assessed as reduction of bacterial burden at 20 uM after 48 hrs. The following applies: THP-1. It counts as functional.
`COc1cc(C(=O)/C=C/c2ccc3ccccc3c2)ccc1O`: the inhibition entry is “inactive”.
With `COc1ccc(C(=O)/C=C/c2ccc3ccccc3c2)cc1OC`, the inhibition entry was “inactive”.

The same data set, now with this note: THP-1, 48 h.
With `COc1ccc(OC)c(C(=O)/C=C/c2cccc3ccccc23)c1`, the inhibition at 20 µM came out at 77%.
On the same count and under the same terms, with `O=C(/C=C/c1cccc2ccccc12)c1ccccc1O` the figure was 50%.
On the same count and under the same terms, with `COc1ccc(OC)c(C(=O)/C=C/c2ccc3ccccc3c2)c1` the figure was 50%.

For the next data set, the system named is Mycobacterium tuberculosis. The data set is described as follows: Antibacterial activity against Mycobacterium tuberculosis H37Rv infected in human THP1 cells assessed as reduction of bacterial burden at 40 uM after 96 hrs. It counts as functional. The following applies: THP-1, 96 h.
For the compound `COc1cc(C(=O)/C=C/c2ccc3ccccc3c2)ccc1O`, the inhibition at 40 µM worked out at 80%.
The same measure, in the same setting: in the case of `COc1ccc(OC)c(C(=O)/C=C/c2cccc3ccccc23)c1` it was 90%.
`O=C(/C=C/c1cccc2ccccc12)c1ccccc1O`: the inhibition at 40 µM came out at 77%.
On the same count and under the same terms, with `COc1ccc(OC)c(C(=O)/C=C/c2ccc3ccccc3c2)c1` the figure was 90%.
Still for that read-out and setting: in the case of `COc1ccc(C(=O)/C=C/c2ccc3ccccc3c2)cc1OC` it was 40%.

A further data set addresses T3, Low molecular weight protein-tyrosine phosphatase A (Mycobacterium tuberculosis). The data set is described as follows: Inhibition of Mycobacterium tuberculosis PTPA-mediated dephosphorylation of VPS33B assessed as increase in phosphorylated VPS33B level after 15 mins by scintillation counting.
Conditions: not given
As for `O=C(/C=C/c1cccc2ccccc12)c1ccccc1O`, the inhibition result is “Dose-dependent effect”.
